PMC6271273, “Chemo-Enzymatic Synthesis of Silybin and 2,3-Dehydrosilybin Dimers” (Molecules, 2014)
Marks after values point to notes of the source that are not given here.

Legend:
[1] = Stability of dimers in buffers, HPLC; assay type: physicochemical; details: PBS and phosphate buffers (0.2 M, pH 7.4), longer than 24 h
Description: The stability of the dimers in PBS buffer and phosphate buffer (0.2 M, pH 7.4) was monitored using an HPLC method. […] The chromatography was carried out in a Shimadzu Prominence UFLC system (Kyoto, Japan) consisting of a DGU-20A mobile phase degasser, two LC-20AD solvent delivery units, SIL-20ACHT cooling autosampler, CTO-10AS column oven and SPD-M20A (PDA, photodiode array detector). A Chromolith Performance RP-18e monolithic column (100 × 3 mm i.d.) and guard column (5 × 4.6 mm i.d., both Merck) were used. The PDA data were acquired in the 200–450 nm range and the 285 signal was extracted. Gradient elution: mobile phase A: 0.1% formic acid, 10% methanol in water (v/v/v); mobile phase B: 0.1% formic acid in methanol (v/v); gradient, 0–1 min, 20% B; 1–8 min, 20%–90% B; 8–9 min, 90% B, 9–10 min, 90%–20% B. The flow rate was 1.2 mL/min at 25 °C.

[2] = Square wave voltammetry (in situ / ex situ) at pyrolytic graphite electrode; assay type: physicochemical; details: SWV, vs. Ag/AgCl/3 M KCl, pH 7.4, n = 3; for Oxidation potential Ep1: ascribed to oxidation of C-20 OH; for Oxidation potential Ep2: oxidation of resorcinol moiety (ring A)
Description: The monomeric flavonolignans and their dimers were analyzed using in situ voltammetry with the working electrode (PGE: pyrolytic graphite electrode) dipped in the supporting electrolyte containing the analytes and/or ex situ voltammetric analysis (adsorptive transfer, AdT technique). For this purpose, the PGE was first dipped into a 5 µL aliquot of the studied sample. After an accumulation period (30 s), the electrode was washed with deionized water and placed in an electrochemical cell containing pure supporting electrolyte. Square-wave voltammetry (SWV) and cyclic voltammetry (CV) were performed at room temperature with a µAutolab III analyzer (EcoChemie, Utrecht, The Netherlands) in a three-electrode setup (Ag/AgCl 3M KCl electrode as a reference and a platinum wire as the auxiliary electrode). SWV parameters: frequency: 200 Hz, from 0 V to +1.5 V, concentration of tested compounds (50 µM), supporting electrolyte: Britton-Robinson buffer, pH 7.4. The flavonolignans analyzed were dissolved in methanol as a stock solution of 1 mg mL^−1 (stored in a fridge in the dark), and diluted with the supporting electrolyte and/or 0.2 M acetate buffer (pH 5) for in situ and/or ex situ voltammetry. Ex situ a.c. voltammetry (out-of-phase) was carried out with a hanging mercury drop electrode (HMDE) according to the previously published paper. In this case, the flavonolignans (50 µM) were adsorbed from 0.2 M acetate buffer (pH 5) for 30 s. For current responses and potentials (Ep), the standard deviations (S.D.) were less than ±3.55% and ±3 mV for all experiments, respectively.

[3] = DPPH radical scavenging assay; assay type: biochemical; details: 33 µM test compound, n = 4, absorbance at 517 nm after 30 min
Description: Antiradical activity was evaluated spectrophotometrically as the ability of the tested substances to reduce the 1,1-diphenyl-2-picrylhydrazyl (DPPH) radical as described previously with minor modifications. Briefly, a solution of the tested substance (10 µL, final concentration 0–540 µM) were mixed with a freshly prepared methanolic DPPH solution (290 µL, final concentration 20 µM) in a microtiter plate well. After 30 min, absorbance at 517 nm was measured, percentages of inhibition were calculated using the negative control and for selected compounds the IC50 values were obtained from the inhibition curves.

| SMILES | Stability during longer incubation [1] | Oxidation potential Ep1 [2] | Oxidation potential Ep2 [2] | DPPH [% of inhibition] [3] |
| --- | --- | --- | --- | --- |
| COc1cc([C@H]2Oc3cc([C@H]4Oc5cc(O)cc(O)c5C(=O)[C@@H]4O)ccc3O[C@@H]2COC(=O)CCCCCCCCCCC(=O)OC[C@@H]2Oc3ccc([C@H]4Oc5cc(O)cc(O)c5C(=O)[C@@H]4O)cc3O[C@H]2c2ccc(O)c(OC)c2)ccc1O [Compound 5, 1-(((2R,3R)-3-(4-Hydroxy-3-methoxyphenyl)-6-((2R,3R)-3,5,7-trihydroxy-4-oxochroman-2-yl)-2,3-dihydrobenzo[b][1,4]dioxin-2-yl)methyl) 12-(((2S,3S)-3-(4-hydroxy-3-methoxyphenyl)-6-((2R,3R)-3,5,7-trihydroxy-4-oxochroman-2-yl)-2,3-dihydrobenzo[b][1,4]dioxin-2-yl)methyl) dodecanedioate] | signs of instability (decomposition) | 0.55 V | 0.83 V | 7.0 ± 2.9 ^a % |
| COc1cc([C@@H]2Oc3cc([C@H]4Oc5cc(O)cc(O)c5C(=O)[C@@H]4O)ccc3O[C@H]2COC(=O)CCCCCCCCCCC(=O)OC[C@@H]2Oc3ccc([C@H]4Oc5cc(O)cc(O)c5C(=O)[C@@H]4O)cc3O[C@H]2c2ccc(O)c(OC)c2)ccc1O [Compound 4, bis(((2S,3S)-3-(4-Hydroxy-3-methoxyphenyl)-6-((2R,3R)-3,5,7-trihydroxy-4-oxochroman-2-yl)-2,3-dihydrobenzo[b][1,4]dioxin-2-yl)methyl) dodecanedioate] | signs of instability (decomposition) | 0.57 V | 0.83 V | 9.0 ± 3.0 ^a % |
